Where two headings read alike, the source gives them in different places.
What was measured:
Assay type in all cases: cell-based
Fusarium graminearum [1] = test system: Fusarium graminearum
Fusarium graminearum [2] = test system: Fusarium graminearum
Septoria tritici = test system: Septoria tritici
Mycosphaerella fijiensis = test system: Mycosphaerella fijiensis
[3] = Table 2B (Dm-AMP1 based libraries), improvement compared to reference defensin protein (Rs-AFP2 for Table 2B [sic])
[4] = Measurement taken at 72 hours after inoculation, fold improvement compared to DmAMP1
[5] = Measurement taken at 144 hours after inoculation, fold improvement compared to DmAMP1
[6] = Table 2C (mixed diversity library), improvement compared to reference defensin protein DmAMP

Sequence | Activity (1): antifungal activity of the NP against Fusarium graminearium (Fusarium graminearum [1]; [3]) | Antifungal activity, Fusarium graminearum (improvement compared to DmAMP1) (Fusarium graminearum [2]; [4]) | Antifungal activity, Septoria tritici (improvement compared to DmAMP1) (Septoria tritici; [5]) | Antifungal activity, Mycosphaerella fijiensis (improvement compared to DmAMP1) (Mycosphaerella fijiensis; [5]) | Activity (1): antifungal activity of the NP against Fusarium graminearium (Fusarium graminearum [1]; [6]) | Antifungal activity, Fusarium graminearum (improvement compared to DmAMP1) (Fusarium graminearum [2]) | Antifungal activity, Septoria tritici (improvement compared to DmAMP1) (Septoria tritici) | Antifungal activity, Mycosphaerella fijiensis (improvement compared to DmAMP1) (Mycosphaerella fijiensis)
NLCERASKTWTGNCGNTKHCDNQCRSWEGAKHGACHVRNGKHKCFCYFNC (Defensin like) [L6-75] | ++ (++ indicates a >5- to 10-fold improvement) | +++ (+++ indicating >10-fold improvement) | +++ (+++ indicating >10-fold improvement) | + (+ indicating 1- to 5-fold improvement compared to DmAMP1) | – | – | – | –
DGVKLCERASKTWSGHCGNTKHCDNQCRSWEGAKHGACHVRNGKWKCFCYFNC (Defensin like) [L7-452] | – | ++ (++ indicating >5- to 10-fold improvement) | + (+ indicating 1- to 5-fold improvement compared to DmAMP1) | + (+ indicating 1- to 5-fold improvement compared to DmAMP1) | +++ (+++ indicates a >10-fold improvement) | – | – | –
DGVKLCERPSQTWSGHCGNTKHCDKQCRNWEGAKHGACHVRNGKWKCFCYFNC (Defensin like) [L7-87] | – | +++ (+++ indicating >10-fold improvement) | ++ (++ indicating >5- to 10-fold improvement) | + (+ indicating 1- to 5-fold improvement compared to DmAMP1) | +++ (+++ indicates a >10-fold improvement) | – | – | –
NLCERASKTWTGNCGNTKHCDTQCKSWEGAKHGACHVRNGKHKCFCYFNC (Defensin like) [L6-71] | +++ (+++ indicates a >10-fold improvement) | +++ (+++ indicating >10-fold improvement) | + (+ indicating 1- to 5-fold improvement compared to DmAMP1) | + (+ indicating 1- to 5-fold improvement compared to DmAMP1) | – | – | – | –
DGVKLCEKPSQTWTGNCGNTKHCDTQCRNWEGAKHGACHKRNGKWKCFCYFNC (Defensin like) [L7-427] | – | ++ (++ indicating >5- to 10-fold improvement) | + (+ indicating 1- to 5-fold improvement compared to DmAMP1) | + (+ indicating 1- to 5-fold improvement compared to DmAMP1) | ++ (++ indicates a >5- to 10-fold improvement) | – | – | –
NLCERASKTWTGNCGNTKHCDTQCKNWEGAKHGACHVRSGKHKCFCYFNC (Defensin like) [L6-58] | +++ (+++ indicates a >10-fold improvement) | +++ (+++ indicating >10-fold improvement) | + (+ indicating 1- to 5-fold improvement compared to DmAMP1) | + (+ indicating 1- to 5-fold improvement compared to DmAMP1) | – | – | – | –
NLCERASKTWTGNCGNTKHCDTQCKSWESAKHGACHVRSGKHKCFCYFNC (Defensin like) [L3-64] | + (+ indicates a 1- to 5-fold improvement in activity compared to a reference defensin protein) | +++ (+++ indicating >10-fold improvement) | ++ (++ indicating >5- to 10-fold improvement) | + (+ indicating 1- to 5-fold improvement compared to DmAMP1) | – | – | – | –
DGVKLCERASQTWTGHCGNTKHCDKQCKNWEGAKHGACHKRNGKWKCFCYFNC (Defensin like) [L7-432] | – | +++ (+++ indicating >10-fold improvement) | + (+ indicating 1- to 5-fold improvement compared to DmAMP1) | +++ (+++ indicating >10-fold improvement) | +++ (+++ indicates a >10-fold improvement) | – | – | –
NLCERASKTWTGNCGNTKHCDTQCKNWEGAKHGACHKRNGKWKCFCYFNC (Defensin like) [L3-42] | +++ (+++ indicates a >10-fold improvement) | +++ (+++ indicating >10-fold improvement) | ++ (++ indicating >5- to 10-fold improvement) | + (+ indicating 1- to 5-fold improvement compared to DmAMP1) | – | – | – | –
NLCERASKTWTGNCGNTKHCDNQCKNWEGAKHGACHVRNGKWKCFCYFNC [L6-21] (Defensin like) | +++ (+++ indicates a >10-fold improvement) | +++ (+++ indicating >10-fold improvement) | +++ (+++ indicating >10-fold improvement) | + (+ indicating 1- to 5-fold improvement compared to DmAMP1) | – | – | – | –
NLCERASKTWTGNCGNTKHCDNQCKSWEGAKHGACHVRNGKHKCFCYFNC (Defensin like) [L9-33] | ++ (++ indicates a >5- to 10-fold improvement) | +++ (+++ indicating >10-fold improvement) | +++ (+++ indicating >10-fold improvement) | ++ (++ indicating >5- to 10-fold improvement) | – | – | – | –
DGVKLCERASKTWTGNCGNTKHCDKQCKNWEGAKHGACHVRNGKWKCFCYFNC (Defensin like) [L7-449] | – | +++ (+++ indicating >10-fold improvement) | ++ (++ indicating >5- to 10-fold improvement) | + (+ indicating 1- to 5-fold improvement compared to DmAMP1) | ++ (++ indicates a >5- to 10-fold improvement) | – | – | –
DGVKLCERASQTWTGHCGNTKHCDKQCRNWEGAKHGACHKRNGKWKCFCYFNC (Defensin like) [L7-179] | – | + (+ indicating 1- to 5-fold improvement compared to DmAMP1) | + (+ indicating 1- to 5-fold improvement compared to DmAMP1) | + (+ indicating 1- to 5-fold improvement compared to DmAMP1) | +++ (+++ indicates a >10-fold improvement) | – | – | –
NLCERASKTWTGNCGNTKHCDNQCKNWEGAKHGACHVRNGKWKCFCYFNC [L6-41] (Defensin like) | +++ (+++ indicates a >10-fold improvement) | + (+ indicating 1- to 5-fold improvement compared to DmAMP1) | + (+ indicating 1- to 5-fold improvement compared to DmAMP1) | + (+ indicating 1- to 5-fold improvement compared to DmAMP1) | – | – | – | –
DGVKLCERASQTWTGHCGNTKHCDNQCRNWEGAKHGACHKRNGKWKCFCYFNC (Defensin like) [L7-337] | – | +++ (+++ indicating >10-fold improvement) | + (+ indicating 1- to 5-fold improvement compared to DmAMP1) | ++ (++ indicating >5- to 10-fold improvement) | ++ (++ indicates a >5- to 10-fold improvement) | – | – | –
NLCERASKTWTGNCGNTKHCDNQCRNWEGAKHGACHKRSGKWKCFCYFNC (Defensin like) [L9-15] | +++ (+++ indicates a >10-fold improvement) | ++ (++ indicating >5- to 10-fold improvement) | ++ (++ indicating >5- to 10-fold improvement) | + (+ indicating 1- to 5-fold improvement compared to DmAMP1) | – | – | – | –
DGVKLCEKASQTWSGHCGNTKHCDNQCKNWEGAKHGACHKRNGKWKCFCYFNC [L7-434] (Defensin like) | – | – | – | – | – | +++ (key: + indicating 1- to 5-fold improvement compared to DmAMP1; ++ indicating >5- to 10-fold improvement; +++ indicating >10-fold improvement) | + (key: + indicating 1- to 5-fold improvement compared to DmAMP1; ++ indicating >5- to 10-fold improvement; +++ indicating >10-fold improvement) | + (key: + indicating 1- to 5-fold improvement compared to DmAMP1; ++ indicating >5- to 10-fold improvement; +++ indicating >10-fold improvement)
NLCERASKTWSGNCGNTKHCDTQCKSWEGAKHGACHVRNGKHKCFCYFNC (Defensin like) [L9-26] | – | – | – | – | – | +++ (key: + indicating 1- to 5-fold improvement compared to DmAMP1; ++ indicating >5- to 10-fold improvement; +++ indicating >10-fold improvement) | +++ (key: + indicating 1- to 5-fold improvement compared to DmAMP1; ++ indicating >5- to 10-fold improvement; +++ indicating >10-fold improvement) | ++ (key: + indicating 1- to 5-fold improvement compared to DmAMP1; ++ indicating >5- to 10-fold improvement; +++ indicating >10-fold improvement)
NLCERASKTWSGNCGNTKHCDNQCKNWEGAKHGACHVRNGKHKCFCYFNC [L6-60] (Defensin like) | – | – | – | – | – | +++ (key: + indicating 1- to 5-fold improvement compared to DmAMP1; ++ indicating >5- to 10-fold improvement; +++ indicating >10-fold improvement) | +++ (key: + indicating 1- to 5-fold improvement compared to DmAMP1; ++ indicating >5- to 10-fold improvement; +++ indicating >10-fold improvement) | + (key: + indicating 1- to 5-fold improvement compared to DmAMP1; ++ indicating >5- to 10-fold improvement; +++ indicating >10-fold improvement)

Reference: patent publication US7785828B1 (priority 2003, dated 2010)
